Assay results as given in patent US9175024B2, “Platinum compound having amino or alkylamino-containing succinic acid derivatives as leaving group, preparation method thereof, and use thereof” (BEIJING FSWELCOME TECHNOLOGY DEVELOPMENT CO., LTD., priority 2011, dated 2015).

What was measured:
Lung cancer H292 = assay: MTT cytotoxicity, lung cancer H292; format: cell-based; conditions: n = 6, Lung cancer H292
Experimental: (§1) Several kinds of tumor cells in exponential growth phase were prepared into single cell suspension, inoculated on 96 pore plat at the density of 4×10^4/hole, cultivated for 24 hours to enable to adhere to wall with 1640 culture medium containing 10% fetal calf serum (complete medium) at 37° C.; the final culture volume was 100 μl. Cell morphology was observed after culture for 24 hours.

breast cancer MCF-7 = assay: In vivo antitumor activity, breast cancer MCF-7 in nude mice; conditions: MCF-7 in female nude mice, 10 mg (platinum)/kg, once a week, 4 times, tumor weighed 4 weeks later
Testis cell ST = assay: MTT cytotoxicity, testis cell ST; format: cell-based; conditions: n = 6, Testis cell ST
Experimental: as §1

Esophagus cancer ECA109 = assay: MTT cytotoxicity, esophagus cancer ECA109; format: cell-based; conditions: n = 6, Esophagus cancer ECA109
Experimental: as §1

Gastric cancer MGC803 = assay: MTT cytotoxicity, gastric cancer MGC803; format: cell-based; conditions: n = 6, Gastric cancer MGC803
Experimental: as §1

normal mice = assay: Acute toxic effect of platinum complex on normal mice (LD50, single intravenous administration); format: in vivo, Kunming mice; conditions: single intravenous administration in 5% glucose solution, 14 days observation, Bliss method
Experimental: Kunming mice at 4˜6 weeks old and at the weight of 18˜22 g were taken, 50% male and 50% female. Embodiment platinum compound was dissolved with 5% glucose solution. […] Mortality and toxicity were observed after administration, totally observing 14 days, LD50 value was calculated with Bliss method according to mortality.

[1] = Solubility in water of the embodiment and contrast compounds

| Structure (SMILES) | IC50 (Lung cancer H292) | Tumor inhibition rate (x ± SD) (breast cancer MCF-7) | IC50 (Testis cell ST) | IC50 (Esophagus cancer ECA109) | IC50 (Gastric cancer MGC803) | LD50 value (normal mice) | solubility [1] |
| --- | --- | --- | --- | --- | --- | --- | --- |
| CCN(CC)CCCC(CC(=O)[O-])C(=O)[O-].NC1CC1N.[Pt+2] (racemic) [Compound 17, [2-(3-diethylamino propyl)-succinato].[Cis-(1,2-trans-cyclopropyldiamine)]platinum (II)] | 31 µM | 82.5 ± 11.34 9% | 51 µM | 72 µM | 13 µM | 0.581 mmol/kg | 195 mg/mL |
| CN(C)CCC(CC(=O)[O-])C(=O)[O-].NCC1CCC1CN.[Pt+2] (racemic) [Compound 23, [2-(2-dimethylaminoethyl)-succinato].[Cis-1,4-(trans-2,3-cyclobutyl)-butyldiamine]platinum (II)] | 51 µM | 85.1 ± 10.37 9% | 18 µM | 102 µM | 146 µM | 0.512 mmol/kg | 165 mg/mL |
| CCN(CC)CCC(CC(=O)[O-])C(=O)[O-].NCC1CCC1CN.[Pt+2] (racemic) [Compound 24, [2-(2-diethylamino ethyl)-succinato].[Cis-1,4-(trans-2,3-cyclobutyl)-butanediamine]platinum (II)] | 25 µM | 69.3 ± 10.13 9% | 12 µM | 71 µM | 119 µM | 0.525 mmol/kg | 176 mg/mL |
| CN(C)CCC(CC(=O)[O-])C(=O)[O-].NCCN.[Pt+2] (stereo not drawn) [Compound 18, [2-(2-dimethylaminoethyl)-succinato].[Cis-1,2-ethyldiamine]platinum (II)] | 31 µM | 71.8 ± 12.01 9% | 10 µM | 62 µM | 121 µM | 0.532 mmol/kg | 226 mg/mL |
| CCN(CC)CCC1CC(=O)[O][Pt]2([NH]CCC[NH]2)[O]C1=O (stereo not drawn) [Compound 19, [2-(2-diethylaminoethyl)-succinato].[Cis-1,3-propyldiamine]platinum (II)] | 102 µM | 65.3 ± 9.15 9% | 12 µM | 8 µM | 117 µM | 0.454 mmol/kg | 200 mg/mL |
| CCCN(CCC)CCCC(CC(=O)[O-])C(=O)[O-].NCCCCN.[Pt+2] (stereo not drawn) [Compound 20, [2-(3-di-n-propylaminopropyl)-succinato].[Cis-1,4-butyldiamine]platinum (II)] | 59 µM | 66.7 ± 10.61 9% | 22 µM | 13 µM | 66 µM | 0.513 mmol/kg | 162 mg/mL |
| CCN(CC)CCC1CC(=O)[O][Pt]2([NH]C(CO)C(CO)[NH]2)[O]C1=O (stereo not drawn) [Compound 21, [2-(2-diethyl amino ethyl)-succinato].[Cis-1,2-(1,2-dihydroxymethyl)-ethyldiamine]platinum (II)] | 21 µM | 68.3 ± 10.88 9% | 143 µM | 84 µM | 109 µM | 0.681 mmol/kg | 176 mg/mL |
| CN(C)CCC1CC(=O)[O][Pt]2([NH]CC(CO)(CO)C[NH]2)[O]C1=O (stereo not drawn) [Compound 22, [2-(2-dimethyl amino ethyl)-succinato].[Cis-1,3-(2,2-dihydroxytmethyl)-propyldiamine]platinum (II)] | 65 µM | 70.8 ± 10.12 9% | 52 µM | 17 µM | 15 µM | 0.452 mmol/kg | 205 mg/mL |
| CCN(CC)CCCCC1CC(=O)[O][Pt]2([NH]C3CCCCC3[NH]2)[O]C1=O.O=P(O)(O)O (stereo not drawn) [Compound 29, [2-(4-diethylamino butyl)-succinato].[Cis-(1,2-trans-cyclohexyldiamine)]platinum (II) phosphate] | 3 µM | 82.2 ± 10.82 9% | 5 µM | 6 µM | 7 µM | 0.698 mmol/kg | – |
